Laboratory results reported in ChEMBL document CHEMBL1201862, “PubChem BioAssay data set” (2004).
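Cells were grown in 96-well plates and exposed to each compound for 48 hours at five concentrations; endpoints were interpolated linearly between bracketing concentrations, or set to the highest concentration if not reached. Abbreviation: GI50, concentration required for 50% inhibition of growth.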 Activity calls are given as the source filed them. Rule as the data show it: active = GI50 up to about 1.1 µM and inactive = higher.

Key:
Test in all cases: growth of human tumour cells (NCI), 48 h
ACHN = tested on: ACHN
CAKI-1 = tested on: CAKI-1
CCRF-CEM = tested on: CCRF-CEM
DU-145 = tested on: DU-145
HOP-62 = tested on: HOP-62
KM12 = tested on: KM12
MDA-MB-231 = tested on: MDA-MB-231
MDA-MB-435 = tested on: MDA-MB-435
MOLT-4 = tested on: MOLT-4
OVCAR-3 = tested on: OVCAR-3
OVCAR-4 = tested on: OVCAR-4
OVCAR-8 = tested on: OVCAR-8
PC-3 = tested on: PC-3
SK-MEL-28 = tested on: SK-MEL-28
SK-MEL-5 = tested on: SK-MEL-5
SN12C = tested on: SN12C
SNB-19 = tested on: SNB-19
SNB-75 = tested on: SNB-75
TK-10 = tested on: TK-10
U-251 = tested on: U-251

Structure (SMILES) | GI50 (ACHN) | GI50 (CAKI-1) | GI50 (CCRF-CEM) | GI50 (DU-145) | GI50 (HOP-62) | GI50 (KM12) | GI50 (MDA-MB-231) | GI50 (MDA-MB-435) | GI50 (MOLT-4) | GI50 (OVCAR-3) | GI50 (OVCAR-4) | GI50 (OVCAR-8) | GI50 (PC-3) | GI50 (SK-MEL-28) | GI50 (SK-MEL-5) | GI50 (SN12C) | GI50 (SNB-19) | GI50 (SNB-75) | GI50 (TK-10) | GI50 (U-251)
FC(F)(F)c1cccc(-c2nc3nc(Cl)c(Cl)nc3[nH]2)c1 | 2.63 µM (inactive) | 2.73 µM (inactive) | 1.95 µM (inactive) | 3.29 µM (inactive) | 3.22 µM (inactive) | 2.69 µM (inactive) | 2.02 µM (inactive) | 2.52 µM (inactive) | 2.18 µM (inactive) | 1.59 µM (inactive) | 2.28 µM (inactive) | 3.06 µM (inactive) | 2.5 µM (inactive) | 3.13 µM (inactive) | 0.544 µM (active) | 2.69 µM (inactive) | 3.27 µM (inactive) | 2.42 µM (inactive) | 4.95 µM (inactive) | 1.85 µM (inactive)
Cc1nc(O)nc2nc3cc(Cl)cc(Cl)c3c(NC(C)(CO)CO)c12 | 50.5 µM (inactive) | 94.6 µM (inactive) | > 100 µM (inactive) | 29.2 µM (inactive) | 23.5 µM (inactive) | > 100 µM (inactive) | 14.7 µM (inactive) | > 100 µM (inactive) | > 100 µM (inactive) | > 100 µM (inactive) | > 100 µM (inactive) | 75.2 µM (inactive) | > 100 µM (inactive) | > 100 µM (inactive) | > 100 µM (inactive) | > 100 µM (inactive) | 21.4 µM (inactive) | 11.4 µM (inactive) | 27.4 µM (inactive) | 14.4 µM (inactive)
c1ccc2c(c1)CCc1c-2n(CCN2CCCCC2)c2ccccc12 | 18.7 µM (inactive) | 16.6 µM (inactive) | 15.6 µM (inactive) | 39.4 µM (inactive) | 15.8 µM (inactive) | 14.9 µM (inactive) | 13.2 µM (inactive) | 25.4 µM (inactive) | 13.9 µM (inactive) | 16.6 µM (inactive) | 18.8 µM (inactive) | 17.7 µM (inactive) | 11.8 µM (inactive) | 19.6 µM (inactive) | 0.564 µM (active) | 17.3 µM (inactive) | 26 µM (inactive) | 16.4 µM (inactive) | 19.1 µM (inactive) | 14.3 µM (inactive)
COC(=O)c1cc(C)ccc1C1CN=NC12Cc1c(C)cc(C)cc1C2=O (stereo not given) | 40.5 µM (inactive) | 31.4 µM (inactive) | 26.5 µM (inactive) | 28.4 µM (inactive) | 29 µM (inactive) | 16.5 µM (inactive) | 19.7 µM (inactive) | 16.3 µM (inactive) | 15.7 µM (inactive) | 14.9 µM (inactive) | 16.9 µM (inactive) | 33.8 µM (inactive) | 27.5 µM (inactive) | 51.1 µM (inactive) | 17 µM (inactive) | 28.6 µM (inactive) | 31 µM (inactive) | 23.9 µM (inactive) | 34.1 µM (inactive) | 27 µM (inactive)
O=C1CNNC(CSc2nc3ccc(I)cc3c(=O)n2Cc2ccccc2)=N1 | 16.3 µM (inactive) | 15 µM (inactive) | 15.4 µM (inactive) | 22.2 µM (inactive) | 32.3 µM (inactive) | 28.1 µM (inactive) | 14.5 µM (inactive) | 32.6 µM (inactive) | 31.9 µM (inactive) | 18.6 µM (inactive) | 37.4 µM (inactive) | 26.5 µM (inactive) | 24.5 µM (inactive) | 20.9 µM (inactive) | 15.7 µM (inactive) | 17.1 µM (inactive) | 53.5 µM (inactive) | 11.6 µM (inactive) | 30.1 µM (inactive) | 21.4 µM (inactive)
N=c1c2c(=S)n(-c3ccccc3)c(=S)n(-c3ccccc3)c2nc(SCCCN2CCCCC2)n1-c1ccccc1 | 1.7 µM (inactive) | 1.77 µM (inactive) | 0.413 µM (active) | 1.66 µM (inactive) | 1.76 µM (inactive) | 1.82 µM (inactive) | 1.64 µM (inactive) | 1.75 µM (inactive) | 0.118 µM (active) | 1.65 µM (inactive) | 1.81 µM (inactive) | 1.85 µM (inactive) | 1.66 µM (inactive) | 2.11 µM (inactive) | 1.86 µM (inactive) | 1.78 µM (inactive) | 2.91 µM (inactive) | 1.73 µM (inactive) | 1.71 µM (inactive) | 1.74 µM (inactive)
S=C1N=C2C(=N1)n1c3c(c4ccccc41)CCCC23 (stereo not given) | > 100 µM (inactive) | 42.4 µM (inactive) | 48.6 µM (inactive) | > 100 µM (inactive) | 46 µM (inactive) | 49.2 µM (inactive) | 66.4 µM (inactive) | 55.7 µM (inactive) | 36.6 µM (inactive) | 52.4 µM (inactive) | 67.5 µM (inactive) | 32.1 µM (inactive) | 48.5 µM (inactive) | > 100 µM (inactive) | 36.8 µM (inactive) | 29.4 µM (inactive) | 56.8 µM (inactive) | > 100 µM (inactive) | > 100 µM (inactive) | 35 µM (inactive)
